Measurements taken from US20240009191A1, “METHOD AND COMPOSITION FOR THE TREATMENT OF DISEASE” (DIMERIX BIOSCIENCE PTY LTD, priority 2019, published 2024).

Assays:
Assay type in all cases: cell-based
AT1R-CXCR2 heteromer [1] = target: T1, AT1R-CXCR2 heteromer (Homo sapiens, UniProt P25025+P30556); test: BRET trafficking of CXCR2/Rluc8 (Venus/Kras, Rab5, Rab8) with HA-AT1R, pre-treatment with vehicle or antagonists/inverse agonists; settings: 50 minutes after pre-treatment (10 μM); for effect of both CXCL8 and AngII combined on CXCR2/Rluc8-Venus/Kras BRET / effect of both CXCL8 and AngII combined on CXCR2/Rluc8-Venus/Rab5 BRET / effect of both CXCL8 and AngII combined on CXCR2/Rluc8-Venus/Rab8 BRET: 10 nM CXCL8 and 100 nM AngII; for effect of both CXCL8 and AngII combined on CXCR2/Rluc8-Venus/Kras BRET: FIG. 16C, 16E-16H; for effect of both CXCL8 and AngII combined on CXCR2/Rluc8-Venus/Rab5 BRET: FIG. 17C, 17E-17H; for effect of both CXCL8 and AngII combined on CXCR2/Rluc8-Venus/Rab8 BRET: FIG. 18C, 18E-18H; for effect of AngII on CXCR2/Rluc8-Venus/Kras BRET / effect of AngII on CXCR2/Rluc8-Venus/Rab5 BRET / effect of AngII on CXCR2/Rluc8-Venus/Rab8 BRET: 100 nM AngII only; for effect of AngII on CXCR2/Rluc8-Venus/Kras BRET: FIG. 16B, 16D; for effect of AngII on CXCR2/Rluc8-Venus/Rab5 BRET: FIG. 17B, 17D; for effect of AngII on CXCR2/Rluc8-Venus/Rab8 BRET: FIG. 18B, 18D
T1 sequence (P25025 1-360): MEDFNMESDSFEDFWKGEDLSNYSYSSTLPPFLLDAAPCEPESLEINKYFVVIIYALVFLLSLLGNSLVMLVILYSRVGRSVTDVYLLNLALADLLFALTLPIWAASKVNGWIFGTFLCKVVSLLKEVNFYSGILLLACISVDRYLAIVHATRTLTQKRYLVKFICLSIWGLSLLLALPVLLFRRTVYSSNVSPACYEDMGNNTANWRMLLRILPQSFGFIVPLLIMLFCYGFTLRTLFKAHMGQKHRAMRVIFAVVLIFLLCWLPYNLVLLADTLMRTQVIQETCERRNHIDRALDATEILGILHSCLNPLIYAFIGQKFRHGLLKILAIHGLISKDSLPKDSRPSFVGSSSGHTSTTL
T1 sequence (P30556 1-359): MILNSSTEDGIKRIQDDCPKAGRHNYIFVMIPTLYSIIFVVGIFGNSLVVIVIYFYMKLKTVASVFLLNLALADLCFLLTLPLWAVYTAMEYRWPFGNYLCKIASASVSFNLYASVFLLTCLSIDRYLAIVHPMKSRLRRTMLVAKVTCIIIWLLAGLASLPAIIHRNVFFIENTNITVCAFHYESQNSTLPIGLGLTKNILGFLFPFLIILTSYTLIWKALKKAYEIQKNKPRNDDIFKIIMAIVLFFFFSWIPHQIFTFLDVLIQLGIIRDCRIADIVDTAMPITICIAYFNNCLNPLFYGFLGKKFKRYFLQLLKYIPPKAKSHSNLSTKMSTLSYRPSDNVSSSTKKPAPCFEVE
Procedure: (§1) HEK293FT cells were seeded in 6-well plates at a density of approximately 700,000 cells/well and maintained at 37° C., 5% CO2 in Complete Media (DMEM containing 0.3 mg/ml glutamine, 100 IU/ml penicillin and 100 μg/ml streptomycin (Gibco/Thermo Fisher)) supplemented with 10% fetal calf serum (FCS; Bovogen). Transient transfections were carried out 24 h after seeding using FuGene6™ (Promega) according to manufacturer instructions. 24 h post-transfection, cells were washed with PBS, detached using 0.05% trypsin/0.53 mM EDTA, resuspended in HEPES-buffered phenol red free Complete Media containing 5% FCS and added to a poly-L-lysine-coated white 96-well microplate (Greiner Bio-One). 48 h post-transfection, bioluminescence resonance energy transfer (BRET) assays were carried out following pre-incubation of cells with EnduRen™ (Promega) at a final concentration of 30 μM, at 37° C., 5% CO2 for 2 h. BRET measurements were taken at 37° C. using the LUMlstar™ or CLARIOstar™ (BMG Labtech).
(§2) For antagonist/inverse agonist assays, cells were pre-incubated with EnduRen for 1.5 hours, followed by the addition of vehicle or antagonists/inverse agonists (10 μM) for another 30 minutes.
(§3) The BRET signal observed between interacting proteins is normalized by subtracting the background BRET ratio. […] In the following examples, the second calculation will be used and the signal is described as ligand-induced BRET′. Furthermore, for data shown in FIGS. 4 to 20, all data points in a given set are corrected relative to the final data point prior to agonist treatment, which is fixed to zero. In keys on FIGS. 7 to 20, “>” means “followed by after 50 minutes”, with agonists added at time zero on the x-axes.
(§4) Prior to agonist treatment (added at 0 minutes), a baseline BRET signal was recorded for each of the combinations for 20 minutes. Data were calculated as ligand-induced BRET relative to the ‘vehicle followed by vehicle’ (veh>veh) data set.

AT1R-CXCR2 heteromer [2] = target: T2, AT1R-CXCR2 heteromer (Homo sapiens, UniProt P25025+P30556); test: BRET trafficking of AT1R/Rluc8 (Venus/Kras, Rab5) with unlabelled CXCR2, pre-treatment with vehicle or antagonists/inverse agonists; settings: 50 minutes after pre-treatment (10 μM); for effect of both CXCL8 and AngII combined on AT1R/Rluc8-Venus/Kras BRET / effect of both CXCL8 and AngII combined on AT1R/Rluc8-Venus/Rab5 BRET: 10 nM CXCL8 and 100 nM AngII; for effect of both CXCL8 and AngII combined on AT1R/Rluc8-Venus/Kras BRET: FIG. 19B-19F; for effect of both CXCL8 and AngII combined on AT1R/Rluc8-Venus/Rab5 BRET: FIG. 20B-20F; for effect of AngII on AT1R/Rluc8-Venus/Kras BRET / effect of AngII on AT1R/Rluc8-Venus/Rab5 BRET: 100 nM AngII only; for effect of AngII on AT1R/Rluc8-Venus/Kras BRET: FIG. 19A; for effect of AngII on AT1R/Rluc8-Venus/Rab5 BRET: FIG. 20A
T2 sequence (P30556 1-359): T1 sequence (P30556 1-359)
T2 sequence (P25025 1-360): T1 sequence (P25025 1-360)
Procedure: as §1, §2, §3, §4

AT1R-CXCR2 heteromer [3] = target: T1, AT1R-CXCR2 heteromer; test: BRET Gi coupling, CXCR2/Rluc8, Venus/mGsi and HA-AT1R, pre-treatment with antagonists/inverse agonists; settings: FIGS. 6-15; for effect of CXCL8 only on CXCR2/Rluc8-Venus/mGsi BRET: 10 nM CXCL8, 50 minutes after pre-treatment with antagonists/inverse agonists (10 μM); for effect of CXCL8 and AngII combined on CXCR2/Rluc8-Venus/mGsi BRET: 10 nM CXCL8 and 100 nM AngII; for effect of CXCL8 and AngII combined on CXCR2/Rluc8-Venus/mGsi BRET / effect of AngII only on CXCR2/Rluc8-Venus/mGsi BRET: 50 minutes after pre-treatment with antagonists/inverse agonists (10 μM); for effect of AngII only on CXCR2/Rluc8-Venus/mGsi BRET: 100 nM AngII
Procedure: as §1, §2, §3, §4

SMILES | effect of AngII on CXCR2/Rluc8-Venus/Kras BRET (AT1R-CXCR2 heteromer [1]) | effect of AngII on CXCR2/Rluc8-Venus/Rab5 BRET (AT1R-CXCR2 heteromer [1]) | effect of AngII on CXCR2/Rluc8-Venus/Rab8 BRET (AT1R-CXCR2 heteromer [1]) | effect of CXCL8 only on CXCR2/Rluc8-Venus/mGsi BRET (AT1R-CXCR2 heteromer [3]) | effect of AngII only on CXCR2/Rluc8-Venus/mGsi BRET (AT1R-CXCR2 heteromer [3]) | effect of AngII on AT1R/Rluc8-Venus/Kras BRET (AT1R-CXCR2 heteromer [2]) | effect of AngII on AT1R/Rluc8-Venus/Rab5 BRET (AT1R-CXCR2 heteromer [2]) | effect of both CXCL8 and AngII combined on CXCR2/Rluc8-Venus/Kras BRET (AT1R-CXCR2 heteromer [1]) | effect of both CXCL8 and AngII combined on CXCR2/Rluc8-Venus/Rab5 BRET (AT1R-CXCR2 heteromer [1]) | effect of both CXCL8 and AngII combined on CXCR2/Rluc8-Venus/Rab8 BRET (AT1R-CXCR2 heteromer [1]) | effect of both CXCL8 and AngII combined on AT1R/Rluc8-Venus/Kras BRET (AT1R-CXCR2 heteromer [2]) | effect of both CXCL8 and AngII combined on AT1R/Rluc8-Venus/Rab5 BRET (AT1R-CXCR2 heteromer [2]) | effect of CXCL8 and AngII combined on CXCR2/Rluc8-Venus/mGsi BRET (AT1R-CXCR2 heteromer [3])
O=C(Nc1ccc([N+](=O)[O-])cc1O)Nc1ccccc1Br [SB225002] | did not alter | did appear to inhibit | did not alter | completely inhibited | not being altered | – | – | indistinguishable from the effect observed with AngII only | appears to inhibit the effect of AngII as well as that of CXCL8 | indistinguishable from the effect observed with AngII only | indistinguishable from the effect observed with AngII only | indistinguishable from the effect observed with AngII only | indistinguishable from that observed with AngII only
CCOc1nc2cccc(C(=O)O)c2n1Cc1ccc(-c2ccccc2-c2nc(=O)o[nH]2)cc1 [azilsartan] | completely inhibited | completely inhibited | completely inhibited | not being altered | completely inhibited | completely inhibited | completely inhibited | indistinguishable from the effect observed with CXCL8 only | indistinguishable from the effect observed with CXCL8 only | completely inhibited | completely inhibited | completely inhibited | indistinguishable from that observed with CXCL8 only
CCOc1nc2cccc(C(=O)O)c2n1Cc1ccc(-c2ccccc2-c2nnn[nH]2)cc1 [candesartan] | – | – | – | not being altered | completely inhibited | – | – | – | – | – | – | – | indistinguishable from that observed with CXCL8 only
Cc1c(F)cccc1NC(=O)Nc1ccc(Cl)c(S(=O)(=O)[C@H]2CCCNC2)c1O [danirixin] | – | – | – | completely inhibited | not being altered | – | – | – | – | – | indistinguishable from the effect observed with AngII only | indistinguishable from the effect observed with AngII only | indistinguishable from that observed with AngII only

Now from value to compound, other results behind:

effect of AngII on CXCR2/Rluc8-Venus/Kras BRET (AT1R-CXCR2 heteromer [1]) | effect of AngII on CXCR2/Rluc8-Venus/Rab5 BRET (AT1R-CXCR2 heteromer [1]) | effect of AngII on CXCR2/Rluc8-Venus/Rab8 BRET (AT1R-CXCR2 heteromer [1]) | effect of CXCL8 only on CXCR2/Rluc8-Venus/mGsi BRET (AT1R-CXCR2 heteromer [3]) | effect of AngII only on CXCR2/Rluc8-Venus/mGsi BRET (AT1R-CXCR2 heteromer [3]) | effect of AngII on AT1R/Rluc8-Venus/Kras BRET (AT1R-CXCR2 heteromer [2]) | effect of AngII on AT1R/Rluc8-Venus/Rab5 BRET (AT1R-CXCR2 heteromer [2]) | SMILES | effect of both CXCL8 and AngII combined on CXCR2/Rluc8-Venus/Kras BRET (AT1R-CXCR2 heteromer [1]) | effect of both CXCL8 and AngII combined on CXCR2/Rluc8-Venus/Rab5 BRET (AT1R-CXCR2 heteromer [1]) | effect of both CXCL8 and AngII combined on CXCR2/Rluc8-Venus/Rab8 BRET (AT1R-CXCR2 heteromer [1]) | effect of both CXCL8 and AngII combined on AT1R/Rluc8-Venus/Kras BRET (AT1R-CXCR2 heteromer [2]) | effect of both CXCL8 and AngII combined on AT1R/Rluc8-Venus/Rab5 BRET (AT1R-CXCR2 heteromer [2]) | effect of CXCL8 and AngII combined on CXCR2/Rluc8-Venus/mGsi BRET (AT1R-CXCR2 heteromer [3])
– | – | – | not being altered | completely inhibited | – | – | CCCCc1ncc(/C=C(\Cc2cccs2)C(=O)O)n1Cc1ccc(C(=O)O)cc1 [eprosartan] | – | – | – | – | – | indistinguishable from that observed with CXCL8 only
completely inhibited | completely inhibited | completely inhibited | not being altered | completely inhibited | completely inhibited | completely inhibited | CCCCC1=NC2(CCCC2)C(=O)N1Cc1ccc(-c2ccccc2-c2nnn[nH]2)cc1 [irbesartan] | indistinguishable from the effect observed with CXCL8 only | indistinguishable from the effect observed with CXCL8 only | completely inhibited | completely inhibited | completely inhibited | indistinguishable from that observed with CXCL8 only
– | – | – | not being altered | completely inhibited | – | – | CCCCc1nc(Cl)c(CO)n1Cc1ccc(-c2ccccc2-c2nn[nH]n2)cc1 [losartan] | – | – | – | – | – | indistinguishable from that observed with CXCL8 only
did not alter | did not alter | did not alter | completely inhibited | not being altered | – | – | CC[C@@H](Nc1c(Nc2cccc(C(=O)N(C)C)c2O)c(=O)c1=O)c1ccc(C)o1 [navarixin] | indistinguishable from the effect observed with AngII only | indistinguishable from the effect observed with AngII only | indistinguishable from the effect observed with AngII only | indistinguishable from the effect observed with AngII only | indistinguishable from the effect observed with AngII only | indistinguishable from that observed with AngII only
– | – | – | not being altered | completely inhibited | – | – | CCCc1nc2c(C)cc(-c3nc4ccccc4n3C)cc2n1Cc1ccc(-c2ccccc2C(=O)O)cc1 [telmisartan] | – | – | – | – | – | indistinguishable from that observed with CXCL8 only
